Measured values as given in PubChem BioAssay AID651581 (Sanford-Burnham Center for Chemical Genomics, 2012).
Active and inactive are the calls of the source. How the calls were made is not given here.

Assays:
[1] = target: Hypoxia-inducible factor 1-alpha (Homo sapiens) (UniProt Q16665); experiment: potency against HIF reporters across cell lines – luminescence, panel, selectivity assay for HIF-2a inhibitor project, dose response (AID 651581); conditions: human cell HIF reporter, HIF-1a
[2] = target: Endothelial PAS domain-containing protein 1 (Homo sapiens) (UniProt Q99814); experiment: as above; conditions: human cell HIF reporter

Chain of Hypoxia-inducible factor 1-alpha (Homo sapiens) (Q16665 whole entry, looked up, the tested form may be a part): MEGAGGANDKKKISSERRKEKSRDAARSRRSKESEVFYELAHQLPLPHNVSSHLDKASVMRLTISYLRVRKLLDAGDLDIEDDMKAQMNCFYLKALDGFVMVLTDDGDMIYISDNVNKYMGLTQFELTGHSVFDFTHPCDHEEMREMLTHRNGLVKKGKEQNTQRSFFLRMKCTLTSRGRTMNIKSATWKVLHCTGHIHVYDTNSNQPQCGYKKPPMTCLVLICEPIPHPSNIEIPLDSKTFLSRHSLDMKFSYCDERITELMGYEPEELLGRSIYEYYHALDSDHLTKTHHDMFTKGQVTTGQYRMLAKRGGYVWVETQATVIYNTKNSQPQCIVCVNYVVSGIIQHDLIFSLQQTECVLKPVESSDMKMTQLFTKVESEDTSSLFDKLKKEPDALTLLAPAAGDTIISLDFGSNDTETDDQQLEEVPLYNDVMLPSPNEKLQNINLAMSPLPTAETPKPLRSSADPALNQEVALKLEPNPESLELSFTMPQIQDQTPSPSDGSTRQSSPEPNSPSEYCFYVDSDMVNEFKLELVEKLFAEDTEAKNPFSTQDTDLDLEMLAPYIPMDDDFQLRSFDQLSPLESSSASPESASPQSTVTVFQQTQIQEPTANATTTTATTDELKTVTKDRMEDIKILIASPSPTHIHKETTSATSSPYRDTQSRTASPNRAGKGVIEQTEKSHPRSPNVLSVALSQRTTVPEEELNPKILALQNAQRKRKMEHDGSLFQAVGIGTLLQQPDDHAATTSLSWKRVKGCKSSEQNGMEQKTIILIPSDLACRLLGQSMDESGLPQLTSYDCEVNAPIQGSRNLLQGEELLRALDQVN

IC50 ([1]; mean of runs) | IC50 ([1]; run 1) [µM] | IC50 ([1]; run 2) [µM] | IC50 ([2]; HIF-2a PANC, run 1) [µM] | IC50 ([2]; HIF-2a PANC, run 2) [µM] | IC50 ([2]; HIF-2a, mean of runs) | IC50 ([2]; HIF-2a, run 1) [µM] | IC50 ([2]; HIF-2a, run 2) [µM] | IC50 ([2]; HIF-2a PANC, mean of runs) | Compound
inactive | 22.8 | 37.2 | > 99 | 49 | inactive | 15 | 14.5 |  | CCOC(=O)Cc1csc(NC(=S)NC(=O)c2ccccc2C)n1
 | > 99 | > 99 | > 99 | > 99 | inactive | 17 | 14.5 | > 99 µM (inactive) | O=C(CCCc1ccccc1)Nc1cccc(C(=O)O)c1
inactive | 0.397 | 0.777 | 1.36 | 0.912 | 0.913 µM | 0.806 | 1.02 | 1.14 µM | O=C(O)COc1ccc(-c2nccc(-c3ccccn3)n2)cc1
46.2 µM | 4.55 | 87.9 | 3.04 | 5.37 | 2.47 µM | 2.75 | 2.19 | 4.2 µM | CC(=O)Nc1ccc(OCC(=O)c2ccc(C)cc2C)cc1
 | > 99 | > 99 | 6.92 | 2.62 | 1.81 µM | 1.52 | 2.1 | 4.77 µM | Cc1nc2cc(-c3ccccc3)nn2c(C)c1CCC(=O)NCc1ccco1
10.5 µM | 3.9 | 17 | 7.09 | 65.6 | 1.05 µM | 1.28 | 0.826 | inactive | Cc1nc(SCc2cccc(C(=O)O)c2)nc2c1CCCC2
 | > 99 | > 99 | 16.7 | 12 | 2.03 µM | 2.13 | 1.94 | inactive | CCOc1ccc(OCc2cccc(C(=O)N/N=C/c3cccnc3)c2)cc1
 | 45.8 | > 99 | > 99 | > 99 |  | < 30 | 5.03 | > 99 µM (inactive) | O=C(O)c1cc(N/N=C/c2ccc3c(c2)OCCO3)ccc1Cl
58.4 µM | 55 | 61.7 | 25.3 | > 99 | 6.91 µM | 7.05 | 6.78 |  | O=C(c1ccccc1)c1cc(Cl)ccc1N1C(=O)C=CC1=O
inactive | 2.91 | 1.65 | > 99 | 16.5 | 1.64 µM | 1.62 | 1.67 |  | CC(=O)Nc1ccc(NC(=O)c2oc3cc(C)c(C)cc3c2C)cc1
 | > 99 | > 99 | 16.5 | 10.4 | 8.24 µM | 8.72 | 7.77 | 13.5 µM | CCOC(=O)C1CCCN(C(=O)COc2ccc(C(C)(C)C)cc2)CC1 (stereo not given)
 | > 99 | > 99 | 19.4 | 56.8 | inactive | 8.45 | 14.8 | inactive | CCOC(=O)C1CCN(C(=O)Nc2ccc3snnc3c2)CC1
inactive | 8.16 | 20.8 | 2.48 | 9.09 | 6.3 µM | 6.05 | 6.54 | 5.79 µM | Cc1c(CCC(=O)O)c(=O)oc2cc(OCc3ccccc3Br)ccc12
< 10 µM | < 10 | < 10 | < 1 | < 3 | 0.243 µM | 0.246 | 0.241 | < 1 µM (inactive) | COC(=O)Cc1ccc(NC(=O)c2ccc(C(C)(C)C)cc2)cc1
 | > 99 | > 99 | > 99 | > 99 | 9.73 µM | 10.4 | 9.1 | > 99 µM (inactive) | O=C(CSc1nnc(-c2ccc(Br)cc2)o1)Nc1cccc(C(=O)O)c1
inactive | 13.5 | 18.5 | > 99 | 24.2 | 8.61 µM | 8.32 | 8.9 |  | Cc1nnnn1/C(=C\c1ccccc1)C(=O)OCC(=O)Nc1cccc(S(=O)(=O)N(C)C)c1
25.8 µM | 22.8 | 28.9 | 29.9 | 75.9 | 5.66 µM | 5.69 | 5.63 | inactive | O=C1C=C(c2ccc(Cl)cc2)C(=O)N1Nc1ccccc1
 | 71.7 | > 99 | > 99 | > 99 | inactive | 14.7 | 14.7 | > 99 µM (inactive) | Nc1nc2ccc(S(=O)(=O)c3ccc4nc(N)sc4c3)cc2s1

IC50 ([1]; mean of runs) | IC50 ([1]; run 1) [µM] | IC50 ([1]; run 2) [µM] | IC50 ([2]; HIF-2a PANC, run 1) [µM] | IC50 ([2]; HIF-2a PANC, run 2) [µM] | IC50 ([2]; HIF-2a, mean of runs) | IC50 ([2]; HIF-2a, run 1) [µM] | IC50 ([2]; HIF-2a, run 2) [µM] | IC50 ([2]; HIF-2a PANC, mean of runs) | Compound
 | > 99 | > 99 | > 99 | > 99 | inactive | 13.2 | 16.5 | > 99 µM (inactive) | CCOC(=O)c1cccc(COC(=O)c2cccc(-c3nnc(-c4ccccc4)o3)c2)c1
 | 25.1 | > 99 | 53.4 | > 99 | inactive | 10.6 | 9.59 |  | CCc1ccc(S(=O)(=O)ON2C(=O)c3ccccc3C2=O)cc1
 | 32.1 | < 30 | < 30 | 13.4 | inactive | 11.3 | 9.04 |  | COc1ccc(OCc2cccc(C(=O)Nn3cc([N+](=O)[O-])cn3)c2)cc1
 | > 99 | 56.4 | 2.6 | 2.7 | 3.03 µM | 3.35 | 2.7 | 2.65 µM | Cc1ccc(C)c(-c2nc3cc(N)ccc3o2)c1
 | > 99 | > 99 | > 99 | > 99 | 5.55 µM | 5.49 | 5.62 | > 99 µM (inactive) | O=Cc1ccc(-c2cccs2)s1
27.5 µM | 28.9 | 26.2 | 81.3 | 31 | 7.43 µM | 7.46 | 7.41 | inactive | COCCn1c(C)cc(C(=O)CSc2nnc3ccccn23)c1C
36.8 µM | 33.2 | 40.4 | 38.5 | 45.2 | 8.55 µM | 8.69 | 8.4 | inactive | COc1cc(N2C(=O)C=CC2=O)c(OC)cc1Cl
inactive | 24.8 | 21.7 | > 99 | < 30 | < 30 µM (inactive) | < 30 | < 30 |  | C/C(=N/NC(=O)c1cc(C2CC2)[nH]n1)c1cccs1
64.2 µM | 78.9 | 49.5 | < 1 | < 0.3 | < 1 µM | < 1 | < 1 | < 0.3 µM | CC(C)(C)c1ccc(-c2noc(CCC(=O)Nc3cccnc3)n2)cc1
 | > 99 | > 99 | 21 | 72.7 | < 30 µM (inactive) | < 30 | < 30 | 46.9 µM | CCOc1ccc(C(=O)Nc2nnc(SCC(=O)NCC3CCCO3)s2)cc1 (stereo not given)
inactive | 11.3 | 18 | 20 | 14.4 | < 30 µM (inactive) | < 30 | < 30 | 17.2 µM | c1c2c(cc3sc(N4CCOCC4)nc13)OCCO2
12.9 µM | 13.5 | 12.4 | > 99 | 13.5 | 1.96 µM | 1.92 | 2.01 |  | CCOC(=O)Cc1csc(NC(=S)NC(=O)c2ccc(F)cc2)n1
 | > 99 | > 99 | 50.9 | 21.9 | 8.77 µM | 8.96 | 8.59 | inactive | Cc1cc(C)c(C)c(S(=O)(=O)ON2C(=O)c3ccccc3C2=O)c1C
17.9 µM | 28.3 | 7.51 | 10.8 | 13.4 | 5.05 µM | 5.08 | 5.02 | 12.1 µM | CCNC(=O)NC(=O)COC(=O)CCCSc1nc2ccccc2s1
 | > 99 | > 99 | 1.69 | 3.51 | 0.452 µM | 0.456 | 0.448 | inactive | Cc1ccc(-n2nc3ccc(N)cc3n2)c(C)c1
49.8 µM | 60.4 | 39.3 | 76.3 | > 99 | 5.36 µM | 5.12 | 5.61 |  | Cc1ccc(NC(=O)c2cc(N3C(=O)C=CC3=O)ccc2N2CCOCC2)cc1Cl
21.2 µM | 17.8 | 24.6 | 21.1 | > 99 | 2.58 µM | 2.52 | 2.65 |  | O=C(O)c1cccc(COc2ccccc2Cl)c1
 | > 99 | > 99 | > 99 | 18.8 | 6.36 µM | 6.48 | 6.23 |  | O=C(O)c1cccc(CSc2nnc(COc3ccccc3)o2)c1
